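Assay format: 96-well plates, 48-hour exposure. At the GI50, growth is halved.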 The source made the active and inactive calls. No stated cut-off is given here; in the data, active = GI50 up to about 1.1 µM and inactive = higher.
Key:
Assay in all cases: NCI anticancer screen, dose series, 48 h
[1] = tested on: NCI/ADR-RES
[2] = tested on: UACC-62
[3] = tested on: MDA-N
[4] = tested on: K562
[5] = tested on: SNB-75
[6] = tested on: MOLT-4
[7] = tested on: A498
[8] = tested on: NCI-H226
[9] = tested on: SK-MEL-2
[10] = tested on: KM12
[11] = tested on: SF-268
[12] = tested on: MCF7
[13] = tested on: M14
[14] = tested on: SN12C
[15] = tested on: HOP-92
[16] = tested on: U-251
[17] = tested on: PC-3
[18] = tested on: UACC-257
[19] = tested on: HCC 2998

Structure (SMILES) | GI50 [1] | GI50 [2] | GI50 [3] | GI50 [4] | GI50 [5] | GI50 [6] | GI50 [7] | GI50 [8] | GI50 [9] | GI50 [10] | GI50 [11] | GI50 [12] | GI50 [13] | GI50 [14] | GI50 [15] | GI50 [16] | GI50 [17] | GI50 [18] | GI50 [19]
NC(=O)c1ccc(C(=O)Nc2ccc([As](=O)(O)O)cc2)cc1 | > 100 µM (inactive) | > 100 µM (inactive) | > 100 µM (inactive) | > 100 µM (inactive) | > 100 µM (inactive) | > 100 µM (inactive) | > 100 µM (inactive) | > 100 µM (inactive) | > 100 µM (inactive) | > 100 µM (inactive) | > 100 µM (inactive) | > 100 µM (inactive) | > 100 µM (inactive) | > 100 µM (inactive) | > 100 µM (inactive) | > 100 µM (inactive) | > 100 µM (inactive) |  | 
S=C(CSc1ccccc1)Nc1cccc2ccccc12 | 46 µM (inactive) | 32.7 µM (inactive) | 40.7 µM (inactive) | 40.2 µM (inactive) | > 100 µM (inactive) | 21.6 µM (inactive) | 23.1 µM (inactive) | 42 µM (inactive) | 24.3 µM (inactive) | 40.8 µM (inactive) | 61.1 µM (inactive) | 33.8 µM (inactive) | 54.2 µM (inactive) | 45.7 µM (inactive) | 56.2 µM (inactive) | 38.8 µM (inactive) | 35.6 µM (inactive) | 22.3 µM (inactive) | 
N=C(CC(=O)Nc1ccccn1)c1ccccc1 | > 100 µM (inactive) | > 100 µM (inactive) | > 100 µM (inactive) | > 100 µM (inactive) | > 100 µM (inactive) | > 100 µM (inactive) | > 100 µM (inactive) | > 100 µM (inactive) | > 100 µM (inactive) | > 100 µM (inactive) | > 100 µM (inactive) | > 100 µM (inactive) | > 100 µM (inactive) | > 100 µM (inactive) | > 100 µM (inactive) | > 100 µM (inactive) | > 100 µM (inactive) | > 100 µM (inactive) | 
O=C(/C=C/c1ccc(O)c(O)c1)c1cc(O)cc(O)c1 | 16.1 µM (inactive) | 12.9 µM (inactive) | 6 µM (inactive) |  | 12.2 µM (inactive) | 4.91 µM (inactive) | 18.9 µM (inactive) | 14.8 µM (inactive) | 13 µM (inactive) |  | 9.79 µM (inactive) | 3.55 µM (inactive) | 14 µM (inactive) | 13 µM (inactive) | 13 µM (inactive) | 10.8 µM (inactive) | 13.5 µM (inactive) | 10.7 µM (inactive) | 
C#C[C@]1(O)CC[C@H]2[C@@H]3CCC4=C/C(=N/CCOC(=O)c5cccc6cc7ccccc7nc56)CC[C@@H]4[C@H]3CC[C@@]21C | 26 µM (inactive) | 22 µM (inactive) | 37.6 µM (inactive) | > 100 µM (inactive) |  | > 100 µM (inactive) | 41 µM (inactive) | > 100 µM (inactive) | 21.7 µM (inactive) | 20.6 µM (inactive) | 20.6 µM (inactive) | 17.3 µM (inactive) | 23 µM (inactive) | 49.1 µM (inactive) | 20.7 µM (inactive) | 12.7 µM (inactive) | 11.7 µM (inactive) | 27.8 µM (inactive) | 
CC(C)(C)C1=C(Br)C(O)(C(C)(C)C)OP1(=O)c1ccccc1 (centres undefined) | > 100 µM (inactive) | > 100 µM (inactive) | > 100 µM (inactive) | > 100 µM (inactive) | > 100 µM (inactive) | > 100 µM (inactive) | > 100 µM (inactive) |  | > 100 µM (inactive) | > 100 µM (inactive) | > 100 µM (inactive) | 0.805 µM (active) |  | > 100 µM (inactive) | > 100 µM (inactive) | > 100 µM (inactive) | > 100 µM (inactive) | > 100 µM (inactive) | > 100 µM (inactive)
O=C(NC12CC3CC(CC(C3)C1)C2)n1cnc2c(Cl)ncnc21 | > 100 µM (inactive) | 81.1 µM (inactive) | 21.6 µM (inactive) | 25.8 µM (inactive) | 27.4 µM (inactive) | 15 µM (inactive) | > 100 µM (inactive) |  | 28.3 µM (inactive) | > 100 µM (inactive) | 22.6 µM (inactive) | > 100 µM (inactive) | 23.1 µM (inactive) | > 100 µM (inactive) | 34.2 µM (inactive) | 27.2 µM (inactive) | 26.4 µM (inactive) | 35.8 µM (inactive) | 19.1 µM (inactive)
CC(C)C12CCC3(CCC4C(C)(C(=O)O)CCCC4(C)C3C1)C(CN)C2 (centres undefined) | 37.6 µM (inactive) | 32.4 µM (inactive) | 28.4 µM (inactive) |  | 88.5 µM (inactive) |  | 28.8 µM (inactive) | 34.2 µM (inactive) | 42.9 µM (inactive) | 35.8 µM (inactive) | 54.8 µM (inactive) | 29.5 µM (inactive) | 30.4 µM (inactive) | 20.8 µM (inactive) | 55.6 µM (inactive) | 31.4 µM (inactive) | 45.6 µM (inactive) | 40.1 µM (inactive) | 18.4 µM (inactive)
COc1cc(OC)c(/C=C\c2ccnc3ccccc23)c(OC)c1 | 2.07 µM (inactive) | 2.49 µM (inactive) | 0.329 µM (active) | 0.433 µM (active) |  | 3.56 µM (inactive) | 2.88 µM (inactive) | 4.11 µM (inactive) | 3.88 µM (inactive) | 0.736 µM (active) | 5.97 µM (inactive) | 0.569 µM (active) | 3.4 µM (inactive) | 4.71 µM (inactive) | 3.51 µM (inactive) | 3.81 µM (inactive) | 5.51 µM (inactive) | 3.75 µM (inactive) | 9.31 µM (inactive)
Nc1nc(=O)c(/N=N/c2ccccc2)c(C(=O)O)[nH]1 | > 100 µM (inactive) | > 100 µM (inactive) | > 100 µM (inactive) | 54.6 µM (inactive) | > 100 µM (inactive) | 46.3 µM (inactive) | > 100 µM (inactive) | > 100 µM (inactive) | > 100 µM (inactive) | > 100 µM (inactive) | 72.3 µM (inactive) | 79.3 µM (inactive) | > 100 µM (inactive) | 96.6 µM (inactive) | > 100 µM (inactive) | 56.9 µM (inactive) | > 100 µM (inactive) | 62.8 µM (inactive) | 
Cc1ccc(-c2cc(-c3ccc(Cl)cc3)nc(/N=C3\C(=O)N(CN(C)C)c4ccccc43)n2)cc1 | 43.5 µM (inactive) | 97.1 µM (inactive) | 19.4 µM (inactive) | 27.3 µM (inactive) | 57.8 µM (inactive) | 11.5 µM (inactive) | > 100 µM (inactive) | > 100 µM (inactive) | 31.4 µM (inactive) | 64.6 µM (inactive) | 89.9 µM (inactive) | 37.3 µM (inactive) | > 100 µM (inactive) | > 100 µM (inactive) | 98.9 µM (inactive) | 55 µM (inactive) | 50.9 µM (inactive) | 24.8 µM (inactive) | 
O=C(N/N=C(COc1ccccc1)\N=C\c1cccnc1)c1ccncc1 | > 100 µM (inactive) | > 100 µM (inactive) | > 100 µM (inactive) | > 100 µM (inactive) | 36.8 µM (inactive) | > 100 µM (inactive) | > 100 µM (inactive) | > 100 µM (inactive) | > 100 µM (inactive) | > 100 µM (inactive) | > 100 µM (inactive) | > 100 µM (inactive) | > 100 µM (inactive) | > 100 µM (inactive) |  | > 100 µM (inactive) | > 100 µM (inactive) | > 100 µM (inactive) | > 100 µM (inactive)
CC(=O)NC1C(OCc2ccccc2)OC(CO)C(O)C1OC(C)C(=O)NC(C(=O)NC(CCC(=O)NCCCC(=O)Nc1ccc2c(c1)CN1C(=O)c3ccccc3C1=N2)C(N)=O)C(C)C (centres undefined) | > 100 µM (inactive) | > 100 µM (inactive) | > 100 µM (inactive) | > 100 µM (inactive) | > 100 µM (inactive) | > 100 µM (inactive) | > 100 µM (inactive) |  | > 100 µM (inactive) | > 100 µM (inactive) | > 100 µM (inactive) | > 100 µM (inactive) | > 100 µM (inactive) | > 100 µM (inactive) | > 100 µM (inactive) | > 100 µM (inactive) | > 100 µM (inactive) | > 100 µM (inactive) | > 100 µM (inactive)
C=C(CN1CC2C[C@](C(=O)OC)(c3cc4ccccc4[nH]3)C1C(OC)C2OC)S(=O)(=O)c1ccccc1 (some centres undefined) | 4.8 µM (inactive) | 4.11 µM (inactive) | 2.69 µM (inactive) | 2.75 µM (inactive) | 2.74 µM (inactive) | 0.53 µM (active) |  | 5.07 µM (inactive) | 4.17 µM (inactive) | 2.88 µM (inactive) | 4.43 µM (inactive) | 3.81 µM (inactive) | 2.91 µM (inactive) | 3.27 µM (inactive) | 0.729 µM (active) | 2.88 µM (inactive) | 3.19 µM (inactive) | 2.65 µM (inactive) | 1.87 µM (inactive)
C[N+]1(C)CC[N+](C)(C)[BH-]1C(O)O | > 100 µM (inactive) | > 100 µM (inactive) | > 100 µM (inactive) | > 100 µM (inactive) | 0.376 µM (active) | > 100 µM (inactive) | > 100 µM (inactive) |  | > 100 µM (inactive) | > 100 µM (inactive) | > 100 µM (inactive) | > 100 µM (inactive) | > 100 µM (inactive) | > 100 µM (inactive) | > 100 µM (inactive) | > 100 µM (inactive) | > 100 µM (inactive) | > 100 µM (inactive) | > 100 µM (inactive)

From ChEMBL document CHEMBL1201862, “PubChem BioAssay data set” (2004)
